Molecules are shown by their SMILES. Counter-ions that a name gives are not always drawn.

In series [1] the target is T1, Human COX-1 (Homo sapiens, UniProt P23219).
T1 construct: A 2.0 kb fragment containing the coding region of either human or murine COX-1 or human or murine COX-2; made in house; host or cells: SF9 insect cells (baculovirus, transfer vector pVL1393)
Put plainly: Fast assay for COX-1 and COX-2 activity (PGE2 ELISA), COX-1. In kind it is biochemical. Particulars: Table II, pre-incubated 10 minutes at 25° C., arachidonic acid 10 μM, stopped after two minutes, pH 7.5. The protocol: (§1) Recombinant baculoviruses were isolated by transfecting 4 μg of baculovirus transfer vector DNA into SF9 insect cells (2×10^8) along with 200 ng of linearized baculovirus plasmid DNA by the calcium phosphate method. See M. D. Summers and G. E. Smith, A Manual of Methods for Baculovirus Vectors and Insect Cell Culture Procedures, Texas Agric. Exp. Station Bull. […] Recombinant viruses were purified by three rounds of plaque purification and high titer (10^7-10^8 pfu/mL) stocks of virus were prepared. For large scale production, SF9 insect cells were infected in 10 liter fermentors (0.5×10^6/mL) with the recombinant baculovirus stock such that the multiplicity of infection was 0.1. After 72 hours the cells were centrifuged and the cell pellet homogenized in Tris/Sucrose (50 mM: 25%, pH 8.0) containing 1% 3-[(3-cholamidopropyl)dimethylammonio]-1-propanesulfonate (CHAPS). The homogenate was centrifuged at 10,000×G for 30 minutes, and the resultant supernatant was stored at −80° C. before being assayed for COX activity.
COX activity was assayed as PGE2 formed/μg protein/time using an ELISA to detect the prostaglandin released. CHAPS-solubilized insect cell membranes containing the appropriate COX enzyme were incubated in a potassium phosphate buffer (0.05 M Potassium phosphate, pH 7.5, 2 μM phenol, 1 μM heme, 300 μM epinephrine) with the addition of 20 μl of 100 μM arachidonic acid (10 μM). Compounds were pre-incubated with the enzyme for 10 minutes at 25° C. prior to the addition of arachidonic acid. […] The PGE2 formed was measured by standard ELISA technology (Cayman Chemical).
(An ELISA detects its analyte on a solid surface through an enzyme-linked reagent.)

For series [2], the target named is T2, Human COX-2 (Homo sapiens, UniProt P35354).
T2 construct: A 2.0 kb fragment containing the coding region of either human or murine COX-1 or human or murine COX-2; made in house; host or cells: SF9 insect cells (baculovirus, transfer vector pVL1393)
T2 sequence (P35354 18-604): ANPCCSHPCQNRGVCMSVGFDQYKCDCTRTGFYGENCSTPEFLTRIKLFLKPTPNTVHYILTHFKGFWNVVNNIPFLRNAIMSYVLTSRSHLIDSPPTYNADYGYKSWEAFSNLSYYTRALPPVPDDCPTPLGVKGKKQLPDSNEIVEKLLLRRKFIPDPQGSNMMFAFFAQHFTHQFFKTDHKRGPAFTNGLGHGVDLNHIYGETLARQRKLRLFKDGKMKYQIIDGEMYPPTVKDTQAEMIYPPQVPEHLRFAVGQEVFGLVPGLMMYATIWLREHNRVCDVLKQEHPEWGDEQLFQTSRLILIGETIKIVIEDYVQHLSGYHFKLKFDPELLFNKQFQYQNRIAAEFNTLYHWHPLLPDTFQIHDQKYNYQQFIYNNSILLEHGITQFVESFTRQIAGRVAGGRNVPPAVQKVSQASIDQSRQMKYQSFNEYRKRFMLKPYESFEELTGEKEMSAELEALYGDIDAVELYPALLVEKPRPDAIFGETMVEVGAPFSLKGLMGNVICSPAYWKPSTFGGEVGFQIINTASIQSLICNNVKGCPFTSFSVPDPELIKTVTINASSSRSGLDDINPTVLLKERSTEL
Nature of the series: Fast assay for COX-1 and COX-2 activity (PGE2 ELISA), COX-2. In kind it is biochemical. As to conditions: Table II, pre-incubated 10 minutes at 25° C., arachidonic acid 10 μM, stopped after two minutes, pH 7.5. As to the method:
(§2) Recombinant COX-1 and COX-2 were prepared as described by Gierse et al, [[…]., 305, 479-84 (1995)]. A 2.0 kb fragment containing the coding region of either human or murine COX-1 or human or murine COX-2 was cloned into a BamH1 site of the baculovirus transfer vector pVL1393 (Invitrogen) to generate the baculovirus transfer vectors for COX-1 and COX-2 in a manner similar to the method of D. R. O'Reilly et al (Baculovirus Expression Vectors: A Laboratory Manual (1992)). Recombinant baculoviruses were isolated by transfecting 4 μg of baculovirus transfer vector DNA into SF9 insect cells (2×10^8) along with 200 ng of linearized baculovirus plasmid DNA by the calcium phosphate method. See M. D. Summers and G. E. Smith, A Manual of Methods for Baculovirus Vectors and Insect Cell Culture Procedures, Texas Agric. Exp. Station Bull. 1555 (1987). Recombinant viruses were purified by three rounds of plaque purification and high titer (10^7-10^8 pfu/mL) stocks of virus were prepared. For large scale production, SF9 insect cells were infected in 10 liter fermentors (0.5×10^6/mL) with the recombinant baculovirus stock such that the multiplicity of infection was 0.1. After 72 hours the cells were centrifuged and the cell pellet homogenized in Tris/Sucrose (50 mM: 25%, pH 8.0) containing 1% 3-[(3-cholamidopropyl)dimethylammonio]-1-propanesulfonate (CHAPS). The homogenate was centrifuged at 10,000×G for 30 minutes, and the resultant supernatant was stored at −80° C. before being assayed for COX activity.
COX activity was assayed as PGE2 formed/μg protein/time using an ELISA to detect the prostaglandin released. CHAPS-solubilized insect cell membranes containing the appropriate COX enzyme were incubated in a potassium phosphate buffer (0.05 M Potassium phosphate, pH 7.5, 2 μM phenol, 1 μM heme, 300 μM epinephrine) with the addition of 20 μl of 100 μM arachidonic acid (10 μM). Compounds were pre-incubated with the enzyme for 10 minutes at 25° C. prior to the addition of arachidonic acid. Any reaction between the arachidonic acid and the enzyme was stopped after two minutes at 37° C./room temperature by transferring 40 μl of reaction mix into 160 μl ELISA buffer and 25 μM indomethacin. The PGE2 formed was measured by standard ELISA technology (Cayman Chemical).

In series [3] the target is T1, Human COX-1. Nature of the series: Assay for COX-1 and COX-2 activity (PGE2 ELISA, recombinant enzyme), COX-1. In kind it is biochemical. Particulars: Table I; pre-incubated 10-20 minutes, arachidonic acid 10 μM, stopped after ten minutes, pH 8.0. The protocol: as §1
COX activity was assayed as PGE2 formed/μg protein/time using an ELISA to detect the prostaglandin released. CHAPS-solubilized insect cell membranes containing the appropriate COX enzyme were incubated in a potassium phosphate buffer (50 mM, pH 8.0) containing epinephrine, phenol, and heme with the addition of arachidonic acid (10 μM). Compounds were pre-incubated with the enzyme for 10-20 minutes prior to the addition of arachidonic acid. […] The PGE2 formed was measured by standard ELISA technology (Cayman Chemical).

In series [4] the target is T2, Human COX-2. Put plainly: Assay for COX-1 and COX-2 activity (PGE2 ELISA, recombinant enzyme), COX-2. The class given is biochemical. Particulars: Table I; pre-incubated 10-20 minutes, arachidonic acid 10 μM, stopped after ten minutes, pH 8.0. The protocol:
The COX-2 inhibition activity of the compounds of this invention illustrated in the Examples was determined by the following methods.
as §2
COX activity was assayed as PGE2 formed/μg protein/time using an ELISA to detect the prostaglandin released. CHAPS-solubilized insect cell membranes containing the appropriate COX enzyme were incubated in a potassium phosphate buffer (50 mM, pH 8.0) containing epinephrine, phenol, and heme with the addition of arachidonic acid (10 μM). Compounds were pre-incubated with the enzyme for 10-20 minutes prior to the addition of arachidonic acid. Any reaction between the arachidonic acid and the enzyme was stopped after ten minutes at 37° C./room temperature by transferring 40 μl of reaction mix into […] and 25 μM indomethacin. The PGE2 formed was measured by standard ELISA technology (Cayman Chemical).

T1 sequence (P23219 24-599): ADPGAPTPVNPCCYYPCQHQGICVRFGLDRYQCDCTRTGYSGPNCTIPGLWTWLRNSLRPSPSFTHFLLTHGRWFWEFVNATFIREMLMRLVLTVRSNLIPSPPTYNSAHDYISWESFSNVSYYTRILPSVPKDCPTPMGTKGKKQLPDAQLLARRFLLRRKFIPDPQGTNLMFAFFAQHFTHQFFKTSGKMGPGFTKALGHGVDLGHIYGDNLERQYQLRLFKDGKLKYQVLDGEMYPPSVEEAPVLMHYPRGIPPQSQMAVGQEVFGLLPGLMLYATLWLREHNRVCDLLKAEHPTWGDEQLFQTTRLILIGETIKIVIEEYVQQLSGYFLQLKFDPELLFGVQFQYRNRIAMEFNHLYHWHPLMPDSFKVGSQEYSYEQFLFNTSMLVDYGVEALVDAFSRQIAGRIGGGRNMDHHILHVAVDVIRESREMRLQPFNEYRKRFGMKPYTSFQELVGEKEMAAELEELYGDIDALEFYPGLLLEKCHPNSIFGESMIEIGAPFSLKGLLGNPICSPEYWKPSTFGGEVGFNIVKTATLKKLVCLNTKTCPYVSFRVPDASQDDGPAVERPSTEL

As to `CS(=O)(=O)c1ccc(-c2cc(C(F)F)nn2C2CCCCC2)cc1F` [Example 19, 1-Cyclohexyl-3-(difluoromethyl)-5-[3-fluoro-4-(methylsulfonyl)phenyl]-1H-pyrazole], the IC50 is more than 100000 nM against Human COX-1 [1], 340 nM at Human COX-2 [2], more than 100000 nM at Human COX-1 [3] and 700 nM on Human COX-2 [4]. As for `CS(=O)(=O)c1ccc(-c2cc(C(F)F)nn2-c2cccc(C(F)(F)F)c2)cc1F` [Example 21], the IC50 at Human COX-1 [1] was more than 100000 nM; at Human COX-2 [2], 290 nM; at Human COX-1 [3] it was more than 100000 nM; at Human COX-2 [4] it was 550 nM. In the case of `NS(=O)(=O)c1ccc(-n2nc(C(F)(F)F)cc2-c2ccc(Cl)cc2)cc1F` [Example 5, 4-[5-(4-Chlorophenyl)-3-trifluoromethyl-1H-pyrazol-1-yl]-2-fluorobenzenesulfonamide], the IC50 against Human COX-1 [1] was 19900 nM; at Human COX-2 [2], 4 nM; on Human COX-1 [3], 45900 nM; at Human COX-2 [4] it was 5 nM. Taken in the same sequence, the figures for `Cc1ccc(-c2cc(C(F)(F)F)nn2-c2ccc(S(N)(=O)=O)c(F)c2)cc1` [Example 4, 4-[5-(4-Methylphenyl)-3-(trifluoromethyl)-1H-pyrazol-1-yl]-2-fluorobenzenesulfonamide] were 20300 nM, 6 nM, 40500 nM and 19 nM.

`Cc1ccc(-c2cc(C(F)(F)F)nn2-c2ccc(S(N)(=O)=O)c(F)c2)cc1` (as salt: trifluoroacetate) [Example 4, 4-[5-(4-Methylphenyl)-3-(trifluoromethyl)-1H-pyrazol-1-yl]-2-fluorobenzenesulfonamide] showed a melting point of 126 to 128 °C. For `CS(=O)(=O)c1ccc(-c2cc(C(F)F)nn2C2CCCCC2)cc1F` (as salt: trifluoroacetate) [Example 19, 1-Cyclohexyl-3-(difluoromethyl)-5-[3-fluoro-4-(methylsulfonyl)phenyl]-1H-pyrazole], the melting point is 138 to 139 °C. Still for that read-out and setting: the same measure for `Cc1ccc(-n2nc(C(F)F)cc2-c2ccc(S(C)(=O)=O)c(F)c2)cc1Cl` (as salt: trifluoroacetate) [Example 20, 1-(3-Chloro-4-methylphenyl)-3-(difluoromethyl)-5-[3-fluoro-4-(methylsulfonyl)phenyl]-1H-pyrazole]: 146 to 147 °C; for `Cc1onc(-c2ccccc2)c1-c1ccc(S(N)(=O)=O)c(F)c1` [Example 23]: 180 to 182 °C. On to `NS(=O)(=O)c1ccc(-n2nc(C(F)(F)F)cc2-c2ccc(Cl)cc2)cc1F` (as salt: trifluoroacetate) [Example 5, 4-[5-(4-Chlorophenyl)-3-trifluoromethyl-1H-pyrazol-1-yl]-2-fluorobenzenesulfonamide], for which the melting point was 140 to 141 °C. Regarding `COc1ccc(-c2cc(C(F)(F)F)nn2-c2ccc(S(N)(=O)=O)c(F)c2)cc1F` (as salt: trifluoroacetate) [Example 6, 4-[5-(3-Fluoro-4-methoxy)-3-trifluoromethyl-1H-pyrazol-1-yl]-2-fluorobenzenesulfonamide], the melting point fell in the range of 124 to 126 °C. With `COc1ccc(-c2cc(C(F)F)nn2-c2ccc(S(N)(=O)=O)c(F)c2)cc1F` [Example 10, 4-[3-(Difluoromethyl)-5-(3-fluoro-4-methoxyphenyl)-1H-pyrazol-1-yl]-2-fluorobenzenesulfonamide], the melting point is 167 to 169 °C. Further, on Human COX-1 [3], the IC50 is more than 100000 nM. Further, the concentration for half-maximal inhibition (IC50) at Human COX-2 [4] came to 110 nM. Take `COc1ccccc1-c1cc(C(F)(F)F)nn1-c1ccc(S(N)(=O)=O)c(F)c1` (as salt: trifluoroacetate) [Example 9, 2-Fluoro-4-[5-(2-methoxyphenyl)-3-(trifluoromethyl)-1H-pyrazol-1-yl]benzenesulfonamide]: the melting point was in the range of 159 to 160 °C.

`CS(=O)(=O)c1ccc(-c2cc(C(F)F)nn2-c2ccc(F)cc2)cc1F` (as salt: trifluoroacetate) [Example 18, 3-(Difluoromethyl)-5-[3-fluoro-4-(methylsulfonyl)phenyl]-1-(4-fluorophenyl)-1H-pyrazole] displayed a melting point of 201 to 202 °C. Consider `NS(=O)(=O)c1ccc(-n2nc(C(F)(F)F)cc2-c2ccc(F)cc2)cc1F` (as salt: trifluoroacetate) [Example 8, 2-Fluoro-4-[5-(4-fluorophenyl)-3-(trifluoromethyl)-1H-pyrazol-1-yl]benzenesulfonamide], for which the melting point is 127 to 130 °C. For `CS(=O)(=O)c1ccc(-c2cc(C(F)F)nn2-c2cccc(C(F)(F)F)c2)cc1F` (as salt: trifluoroacetate) [Example 21], the melting point was in the range of 110 to 111 °C. On to `COc1ccc(-c2cc(C(F)(F)F)nn2-c2ccc(S(N)(=O)=O)c(F)c2)cc1` [Example 7, 2-Fluoro-4-[5-(4-methoxyphenyl)-3-(trifluoromethyl)-1H-pyrazol-1-yl]benzenesulfonamide], for which the values for the IC50 on Human COX-2 [2] and on Human COX-2 [4] were 4 nM and 5 nM, respectively.

As usually defined, the IC50 is the midpoint of a concentration-inhibition curve. For orientation: melting point means the temperature of the solid-liquid transition.

These data come from patent US20020183362A1, “2-Fluorobenzenesulfonyl compounds for the treatment of inflammation” (Pharmacia Corporation, priority 2000, published 2002).
